From patent US4535081A, “Antiallergic and antiulcer 1-oxo-1H-thiazolo[3,2-a]pyrimidine-2-carboxamides and intermediates therefor” (Pfizer Inc., priority 1983, dated 1985)
Structures can show the parent of a compound that is named as a salt. Where two headings read alike, the source gives them in different places.

Experiments:
[1] = system: IgE (reaginic antiserum) PCA reaction; experiment: Oral activity in PCA test, IgE; format: in vivo, rat; conditions: Rattus norvegicus, IgE, oral
Method: (§1) The antiallergy property of the compounds of this invention is evaluated by the passive cutaneous anaphylaxis (PCA) test (Ovary, J. Immun., 81, 355, 1958). In the PCA test, normal animals are injected intradermally (i.d.) with antibodies contained in serum obtained from actively sensitized animals. The animals are then challenged intravenously with antigen mixed with a dye such as Evans' Blue. The increased capillary permeability caused by the antigen-antibody reaction causes the dye to leak from the site of the antibody injection. The test animals are then asphyxiated and the intensity of the reaction determined by measuring the diameter and intensity of the blue coloration on the inner surface of the animals' skin.
The PCA test is a measure of the anti-allergic (especially anti-asthmatic) activity of a compound. Compounds which inhibit a positive PCA test induced by the rat immunochemical counterpart of human immunoglobulin E (IgE), or reagin, are considered to have anti-allergic activity (C. Mota, Ann. N.Y. Acad. Sci., 103, 264 1963). (Reagin is primarily immunoglobulin E [IgE] and is the principal immunoglobulin responsible for allergic asthma, anaphylaxis, hay fever, food sensitivities and certain manifestations of drug sensitivities, although recent evidence ascribes to the IgG class of antibodies a significant role in the mediation of allergic diseases). Such compounds when administered to a sensitized subject, human or animal, prior to the time when the subject comes into contact with antigens or substances to which it is allergic, will prevent the allergic reaction which would otherwise occur. They, therefore, provide a method for the prophylactic treatment of allergy or anaphylactic reactions of a reagin mediated nature.
To put it another way, such compounds block the release of mediators resulting from the antigen-antibody (allergic) reaction as illustrated in the PCA test using rat homocytotropic antibody--a known correlate of human reaginic antibody. Inhibition of reaginic antigen-antibody reactions in rats, the test animal of the PCA test, is regarded as representative of inhibition of human reaginic antigen-antibody reactions which occur during allergic episodes.
The ability of agents to interfere with PCA reactions is measured in male Charles River Wistar rats, 170-210 g. Reaginic antiserum, rich in IgE antibodies, is prepared according to Petillo et al., Int. Arch. Allergy, 44, 309 (1973). Hyperimmune antiserum rich in IgG antibodies to hen egg albumin is prepared according to Orange et al., J. Exptl. Med., 127, 767 (1968). Forty-eight hours prior to antigen challenge, the reaginic antiserum is injected intradermally (i.d.) into the shaved skin of a normal rat's back; 5 hours before challenge the hyperimmune antisera is similarly injected. At a third site 60 mcg. histamine dihydrochloride and 0.5 mcg. serotonin creatinine sulfate are injected i.d. just prior to antigen challenge as a check for antihistaminic, antiserotonin and unspecific types of blockage; the compounds of the instant invention or saline are then administered i.v. and immediately followed by the challenge of 5 mg. egg albumen and 2.5 mg. Evans' Blue dye in saline. In the case of oral administration Evans' Blue dye and egg albumin are given 5 minutes after administration of the drug. Thirty minutes later the animals are asphyxiated using chloroform and the skin of the back removed and reversed for observation. A score is assigned each injection site equal to the product of the diameter of the site in mm. and a grade of 0.1, 0.5, 1, 2, 3 or 4 proportional to intensity of dye coloration. The scores for a given injection site are summed for each group of five animals and compared to the saline treated controls. The difference is expressed as percent blockage due to the compound employed. […]

[2] = system: IgG (hyperimmune antiserum) PCA reaction; experiment: Oral activity in PCA test, IgG; format: in vivo; conditions: Rattus norvegicus
Method: as §1
The ability of agents to interfere with PCA reactions is measured in male Charles River Wistar rats, 170-210 g. Reaginic antiserum, rich in IgE antibodies, is prepared according to Petillo et al., Int. Arch. Allergy, 44, 309 (1973). Hyperimmune antiserum rich in IgG antibodies to hen egg albumin is prepared according to Orange et al., J. Exptl. Med., 127, 767 (1968). Forty-eight hours prior to antigen challenge, the reaginic antiserum is injected intradermally (i.d.) into the shaved skin of a normal rat's back; 5 hours before challenge the hyperimmune antisera is similarly injected. At a third site 60 mcg. histamine dihydrochloride and 0.5 mcg. serotonin creatinine sulfate are injected i.d. just prior to antigen challenge as a check for antihistaminic, antiserotonin and unspecific types of blockage; the compounds of the instant invention or saline are then administered i.v. and immediately followed by the challenge of 5 mg. egg albumen and 2.5 mg. Evans' Blue dye in saline. In the case of oral administration Evans' Blue dye and egg albumin are given 5 minutes after administration of the drug. Thirty minutes later the animals are asphyxiated using chloroform and the skin of the back removed and reversed for observation. A score is assigned each injection site equal to the product of the diameter of the site in mm. and a grade of 0.1, 0.5, 1, 2, 3 or 4 proportional to intensity of dye coloration. The scores for a given injection site are summed for each group of five animals and compared to the saline treated controls. The difference is expressed as percent blockage due to the compound employed.
Compounds representative of those of the present invention are tested for antiallergy activity by the above-described procedure and the resulting activities are reported as the degree (%) of protection.

ethanol-induced ulcer = experiment: Ethanol-induced rat ulcer assay; format: in vivo; conditions: oral, 5 mg./kg.; for % Inhibition in the Ethanol-Induced Rat Ulcer Assay, amides: Table III; for % Inhibition in the Ethanol-Induced Rat Ulcer Assay, acids: Table IV
Method: Alternatively, the effectiveness of the products of this invention as antiulcer agents is determined in an ethanol-induced rat ulcer assay. In this test, overnight fasted male rats are given drug (5 mg./kg.) or water orally fifteen minutes prior to an orally administered dose of absolute ethanol (1.0 ml.). One hour after the ethanol challenge the animals (8/group) are killed and the stomachs examined for the presence of lesions. All drugs were dissolved in dilute NaOH. After sacrifice the abdomen is opened and a locking hemostat placed at the pylorus. 6 ml. of a 4% solution of formaldehyde was injected into the stomach with a gastric feeding tube and a second locking hemostat was used to seal the esophagus. The stomach was removed, opened along the greater curvature and examined for ulceration.
The scoring system used to quantitate the ethanol-induced lesions is given below.
For each group of animals an ulcer index is calculated as follows:
Ulceration Index=(the sum of the scores of the group)×(the sum of the number of ulcers in the group)×(the fraction of the group having any incidence of ulceration).
The percentage inhibition of ulcers is calculated as follows:
% Inhibition=100×[(ulcer index controls)-(ulcer index drug-treated)].div.(ulcer index controls).

[3] = Water solubility and hygroscopicity; format: physicochemical
[4] = Table I amides, read-out: Oral Activity (% of Protection) in the PCA Test, IgE
[5] = Table I amides, read-out: Oral Activity (% of Protection) in the PCA Test, IgG
[6] = read-out: Oral Activity (% of Protection) in the PCA Test, IgE
[7] = read-out: Oral Activity (% of Protection) in the PCA Test, IgG
[8] = Table II acids, read-out: Oral Activity (% of Protection) of Acids in the PCA Test, IgE
[9] = Table II acids, read-out: Oral Activity (% of Protection) of Acids in the PCA Test, IgG

SMILES | % Inhibition in the Ethanol-Induced Rat Ulcer Assay, amides (ethanol-induced ulcer) [%] | inhibition in vivo at 30 mg/kg [1, 8] [%] | inhibition in vivo at 30 mg/kg [2, 9] [%] | further results
O=C(Nc1nnn[nH]1)c1cnc2sc3c(n2c1=O)CCCCCC3 [Formula I: (CH2)6, N-(5-Tetrazolyl)-1-oxo-1H-cyclooctenothiazolo[3,2-a]pyrimidine-2-carboxamide] | 45 | – | – | inhibition in vivo at 30 mg/kg [1, 4]: 94%; inhibition in vivo at 30 mg/kg [2, 5]: 57%
CCc1sc2ncc(C(=O)Nc3nnn[nH]3)c(=O)n2c1CC [Formula I: R1=C2H5, R2=C2H5, N-(5-Tetrazolyl)-1-oxo-1H-6,7-diethylthiazolo[3,2-a]pyrimidine-2-carboxamid] | 10 | – | – | inhibition in vivo at 30 mg/kg [1, 4]: 62%; inhibition in vivo at 30 mg/kg [2, 5]: 49%
CCc1cn2c(=O)c(C(=O)Nc3nnn[nH]3)cnc2s1 [Formula I: R1=C2H5, R2=H, N-(5-Tetrazolyl)-1-oxo-1H-6-ethylthiazolo[3,2-a]pyrimidine-2-carboxamide] | 86 | – | – | inhibition in vivo at 30 mg/kg [1, 4]: 85%; inhibition in vivo at 30 mg/kg [2, 5]: 58%
Cc1sc2ncc(C(=O)Nc3nnn[nH]3)c(=O)n2c1C [Formula I: R1=CH3, R2=CH3, N-(5-Tetrazolyl)-1-oxo-1H-6,7-dimethylthiazolo[3,2-a]pyrimidine-2-carboxamide] | 96 | – | – | inhibition in vivo at 3 mg/kg [1, 6]: 55%; inhibition in vivo at 3 mg/kg [2, 7]: 51%
Cc1cn2c(=O)c(C(=O)Nc3nnn[nH]3)cnc2s1 [Formula I: R1=CH3, R2=H, N-(5-Tetrazolyl)-1-oxo-1H-6-methylthiazolo[3,2-a]pyrimidine-2-carboxamide] | 72 | – | – | inhibition in vivo at 30 mg/kg [1, 4]: 78%; inhibition in vivo at 30 mg/kg [2, 5]: 55%
Cc1csc2ncc(C(=O)Nc3nnn[nH]3)c(=O)n12 [Formula I: R1=H, R2=CH3, N-(5-Tetrazolyl)-1-oxo-1H-7-methylthiazolo[3,2-a]pyrimidine-2-carboxamide] | 59 | – | – | inhibition in vivo at 3 mg/kg [1, 6]: 55%; inhibition in vivo at 3 mg/kg [2, 7]: 50%
CCc1sc2ncc(C(=O)O)c(=O)n2c1CC [Formula II: R1=C2H5, R2=C2H5, 1-Oxo-1H-6,7-diethylthiazolo[3,2-a]pyrimidine-2-carboxylic Acid] | – | 41 | 32 | % Inhibition in the Ethanol-Induced Rat Ulcer Assay, acids (ethanol-induced ulcer): 48%
CCc1sc2ncc(C(=O)O)c(=O)n2c1C [Formula II: R1=C2H5, R2=CH3, 1-Oxo-1H-6-ethyl-7-methylthiazolo[3,2-a]pyrimidine-2-carboxylic Acid] | – | 42 | 24 | –
CCc1cn2c(=O)c(C(=O)O)cnc2s1 [Formula II: R1=C2H5, R2=H, 1-Oxo-1H-6-ethylthiazolo[3,2-a]pyrimidine-2-carboxylic Acid] | – | 45 | 38 | % Inhibition in the Ethanol-Induced Rat Ulcer Assay, acids (ethanol-induced ulcer): 48%
CCc1c(C)sc2ncc(C(=O)O)c(=O)n12 [Formula II: R1=CH3, R2=C2H5, 1-Oxo-1H-6-methyl-7-ethylthiazolo[3,2-a]pyrimidine-2-carboxylic Acid] | – | 0 | 0 | –
Cc1sc2ncc(C(=O)O)c(=O)n2c1C [Formula II: R1=CH3, R2=CH3, 1-Oxo-1H-6,7-dimethylthiazolo[3,2-a]pyrimidine-2-carboxylic Acid] | – | 0 | 0 | % Inhibition in the Ethanol-Induced Rat Ulcer Assay, acids (ethanol-induced ulcer): 11%
Cc1cn2c(=O)c(C(=O)O)cnc2s1 [Formula II: R1=CH3, R2=H, 1-Oxo-1H-6-methylthiazolo[3,2-a]pyrimidine-2-carboxylic Acid] | – | 12 | 14 | % Inhibition in the Ethanol-Induced Rat Ulcer Assay, acids (ethanol-induced ulcer): 0%
CCc1csc2ncc(C(=O)O)c(=O)n12 [Formula II: R1=H, R2=C2H5, 1-Oxo-1H-7-ethylthiazolo[3,2-a]pyrimidine-2-carboxylic Acid] | – | 13 | 21 | –
CC(C)(C)c1csc2ncc(C(=O)O)c(=O)n12 [Formula II: R1=H, R2=C(CH3)3, 1-Oxo-1H-7-(2-methyl-2-propyl)thiazolo[3,2-a]pyrimidine-2-carboxylic Acid] | – | 10 | 6 | –
Cc1csc2ncc(C(=O)O)c(=O)n12 [Formula II: R1=H, R2=CH3, 1-Oxo-1H-7-methylthiazolo[3,2-a]pyrimidine-2-carboxylic acid] | – | 18 | 19 | % Inhibition in the Ethanol-Induced Rat Ulcer Assay, acids (ethanol-induced ulcer): 27%
CC(C)c1csc2ncc(C(=O)O)c(=O)n12 [Formula II: R1=H, R2=CH(CH3)2, 1-Oxo-1H-7-isopropylthiazolo[3,2-a]pyrimidine-2-carboxylic Acid] | – | 0 | 0 | –
O=C(O)c1cnc2sccn2c1=O [Formula II: R1=H, R2=H] | – | 18 | 7 | –
O=C(Nc1nnn[nH]1)c1cnc2sc3c(n2c1=O)CCCC3 [sodium salt (trihydrate), sodium N-(5-tetrazolyl)-1-oxo-1H-cyclohexenothiazolo[3,2-a]pyrimidine-2-carboxamide trihydrate] | – | – | – | hygroscopicity [3]: non-hygroscopic; water solubility [3]: good water solubility
